Data set [1] is described as follows: Rust formation on polished carbon steel at a distance of 25 cm in closed vessel (vapor phase, condensed water). The conditions noted are these: 20 mg sample, 5-liter vessel, 20°±2° C., observed 5 hours after water condensation. Details: key: The amount of the rust is less than that in the blank test.; x: The amount of the rust is the same as that in the blank test. As to the method:
A laboratory dish containing 20 milligrams of each sample obtained in the preceding Examples was added to a 5-liter glass vessel containing 50 milliliters of 30% aqueous solution of glycerin.
A piece of polished carbon steel (JIS G-4051) was arranged at the upper part of the vessel, at a distance of 25 centimeters from the dish. After keeping the vessel at 20°±2° C. during 1-5 days, water droplets were condensed on a surface of steel from moisture by pouring cold water into an aluminum pipe, and after 5 hours the presence of the rust on the steel piece was observed.

Data set [2] is described as follows: Oral acute toxicity, LD50 in rats. The conditions noted are these: rat, in vivo, rats weighing 90 grams, fasted 24 hours, one week. The procedure: Specifics of the chemicals listed in Table 2 were administered orally in various concentration to respective groups of 10 rats weighing 90 grams after fasting for 24 hours.
After oral administration of the chemical, the rats were fed with a sufficient amount of a diet and water and kept in a thermo-hygrostat at a temperature of 25° C. and humidity of 60% during one week to determine the LD50.

The conditions of data set [3]: ambient temperatures; cited from earlier work.
The conditions of data set [4]: prior-art inhibitors; mineral oil; cited from earlier work.

Results on ten compounds are retold here after patent US4308168A, “Vapor phase corrosion inhibitor compositions and method of inhibiting corrosion using said compositions” (priority 1978, dated 1981).

In the case of `CC(C)(C)OC(=O)CN`, in data set [1], the “presence of rust on steel piece, after leaving for 1 day” value (from here on “presence of rust … for 1 day”) is “o” and the “presence of rust on steel piece, after leaving for 5 days” value (“presence of rust … for 5 days” below) is on record as “o”.
A word on the LD50: it is the dose at which mortality reaches 50%. Regarding `C1CCC(NC2CCCCC2)CC1.O=[N+]([O-])O` [DICHAN, dicyclohexylamine nitrate, reference compound], in data set [1], the “presence of rust … for 1 day” value is “x” and the “presence of rust … for 5 days” value is “x”. In data set [2], this compound registered an LD50 at 168 h of 200 mg/kg. In addition, in data set [3], the “distance of diffusion of gas” value was “about 30 cm”. Further, in data set [4], the solubility in oil result is “no solubility in oil”.
With `C1CCC(NC2CCCCC2)CC1` [FERROGUARD], the solubility in oil entry in data set [4] is reported as “only slightly soluble in mineral oil”.
Consider `CNCC(=O)OC(C)(C)C` [N-methylglycine-tert-butyl ester, N-methylglycine-tert-butylester], for which, in data set [1], the “presence of rust … for 1 day” value is on record as “o” and the “presence of rust … for 5 days” value is given as “o”.
`C1CCC(NC2CCCCC2)CC1` [dicyclohexylamine, reference compound] showed an LD50 at 168 h in data set [2] of 500 mg/kg.
Consider `CC(C)(C)OC(=O)[C@@H](N)Cc1ccccc1` [phenylalanine-tert-butyl ester, phenylalanine-tert-butylester], for which, in data set [1], the “presence of rust … for 1 day” value is listed as “o” and the “presence of rust … for 5 days” value is reported as “o”.
As to `CC(C)(C)OC(=O)[C@@H]1CCCN1` [proline-tert-butyl ester, proline-tert-butylester], in data set [1], the “presence of rust … for 1 day” value is on record as “o” and the “presence of rust … for 5 days” value is “o”. The same compound showed an LD50 at 168 h in data set [2] of more than 5000 mg/kg.
`CCOC(=O)C(C)N` (stereo not drawn) [α-alanine ethyl ester]: in data set [1], the “presence of rust … for 1 day” value was “o” and the “presence of rust … for 5 days” value is “o”. Also, the LD50 at 168 h in data set [2] is more than 5000 mg/kg.
With `CC(N)C(=O)OC(C)(C)C` (stereo not drawn) [α-alanine-tert-butyl ester, α-alanine-tert-butylester], in data set [1], the “presence of rust … for 1 day” value is recorded as “o” and the “presence of rust … for 5 days” value is recorded as “o”. The solubility in water result in the data set “Solubility in water” is “wholly soluble in water”.
For `CC(C)(C)OC(=O)CCN` [β-alanine-tert-butyl ester, β-alanine-tert-butylester], in data set [1], the “presence of rust … for 1 day” value is “o” and the “presence of rust … for 5 days” value is listed as “o”. In “Solubility in water”, the solubility in water entry is on record as “wholly soluble in water”.
